Tests used:
[1] = Mansuy and Bujard Curr. Op. Neurobiol. 10:593-96; cited from earlier work
rtTA2-MT2 = test: rtTA-mediated gene activation, luciferase positive cell line MT2; format: cell-based
Source text: FIGS. 2A-2D show a comparison of doxycycline and 9-t-butyl doxcycline in 34R and MT2 rtTA mutants. FIGS. 2A and 2B show the effect of doxycyline on 34R and MT2 mutants, respectively. FIGS. 2C and 2D show the effect of 9-t-butyl doxycycline on 34R and MT2 mutants, respectively.

[2] = system: tetR, luxCDABE operon under the regulation of the tetA promotor/operator; test: JE305K+pTetLux1 tet detection system (Klux); format: cell-based
Source text: In another embodiment, a tetracycline compound of the invention can be used to regulate transcription of a gene or gene product under the control of a native Tet operator and in the presence of a native TetR in a cell. In one embodiment, the invention pertains to such a cell. For example, JE305K is a strain that has disrupted acrB and waaP genes and comprises a plasmid which contains tetR, and the luxCDABE operon (from P. luminescens) under the regulation of the tetA promotor/operator.
The substituted tetracycline compounds were examined in a dose response analysis using the JE305K+pTetLux1 tet detection system. JE305K is a strain that has disrupted acrB and waaP genes. pTetLux1 is a plasmid which contains tetR, and has the luxCDABE operon (from P. luminescens) under the regulation of the tetA promotor/operator. The plasmid was obtained from the University of Turku, Finland.

[3] = system: transactivator fusion protein; conditions: as demonstrated in U.S. Pat. No. 5,789,156; cited from earlier work

C[C@H]1c2cccc(O)c2C(=O)C2=C(O)[C@]3(O)C(=O)C(C(N)=O)=C(O)[C@@H](N(C)C)[C@@H]3[C@@H](O)[C@@H]21 [doxycycline]
penetration of the blood-brain barrier [1]: limited penetration of the blood-brain barrier

5-phenylcarbamate doxcycline
activation of rtTA2s-M2 compared with doxycycline (rtTA2-MT2): two fold better activator

CCCC#Cc1ccc(O)c2c1C[C@H]1C[C@H]3[C@H](N(C)C)C(O)=C(C(N)=O)C(=O)[C@@]3(O)C(O)=C1C2=O
activity in the JE305K+pTetLux1 assay [2]: active

Cc1c2c(c(O)c3c(O)cccc13)C(=O)[C@]1(O)C(=O)C(C(N)=O)=C(O)[C@@H](N(C)C)[C@@H]1C2 [anhydrotetracycline]
strength as inducing agent [3]: strong inducing agents
